# System: CD33 CAR T cells
# Assay: Inhibitor treatment during ex vivo culture
# Format: cell-based, human
# Settings: for proliferating CD8^+ cells that remained CCR7^+: CellTrace Violet, control T cells about 41%; for total CD8^+ CAR T cells / T cell expansion: 4 days of inhibitor treatment
# Description: Inhibitor treatment during ex vivo culture: CD33 CAR or control transduced T cells were labeled with CellTrace Violet (ThermoFisher) 5 days after their initial activation. […] Cells were analyzed 4 days later by flow cytometry.
# Day 1: Separated PBMCs from apheresis ring of donor. Enriched human T cells by Pan T cell negative selection kit. Activate human T cells by anti-human CD3 and anti-human CD28 (1 ug/ml) coated plates overnight.
# Day2: Transduced human T cells with anti-CD33 CAR gamma-retrovirus or MSCV control by retronectin coated non-tissue culture plate.
# Day3: Resuspend the cells and plate them in the IL-2 RPMI medium in the tissue culture plate.
# 100U/ml IL-2 was added to cultures every 2 days. Cells were analyzed 4 days later by flow Cytometry.
# [1] = 4 days, LY294002 10 μM, IC87114 10 μM, API-2 1 μM, rapamycin 50 nM, PP242 1 μM, DCA 10 mM, vs untreated CD33 CAR T cells
SMILES,proliferating CD8^+ cells that remained CCR7^+ (4 days),percentage of CCR7^+ cells among undivided CD8^+ cells (4 days),"CD8^+ TEM or TEFF cell numbers (4 days, 10 μM)","number of CD8^+ TN and TCM cells (4 days, same concentrations, vs untreated CD33 CAR T cells)",percent of CD8^+ TN and TCM cells [1],"CD8^+ TEM or TEFF cell percent (Example 4: 4 days, different concentrations)","percent of CD8^+ TN and TCM cells (Example 4: 4 days, different concentrations, vs untreated CD33 CAR T cells)",total CD8^+ CAR T cells / T cell expansion,"number of CD8^+ TEFF cells (4 days, rapamycin 50 nM, PP242 1 μM)"
O=c1cc(N2CCOCC2)oc2c(-c3ccccc3)cccc12 [LY294002],about 43%,,,,,,,,
Cc1ccccc1-n1c(Cn2cnc3c(N)ncnc32)nc2cccc(C)c2c1=O [IC87114],~33%,did not alter,did not significantly alter,increased significantly,increased significantly,significant decrease,increased significantly,,
CC(C)n1nc(-c2cc3cc(O)ccc3[nH]2)c2c(N)ncnc21 [PP242],,,,,no detectable effect,,,substantial decrease,decreased
"O=C(O)C(Cl)Cl [DCA, dichloroacetic acid]",,,,,increased,,,significantly inhibited T cell expansion,

# From US12053490B2, “Methods and compositions for treating CD33+ cancers and improving in vivo persistence of chimeric antigen receptor T cells” (ST. JUDE CHILDREN'S RESEARCH HOSPITAL, INC., priority 2017, dated 2024)
